± gives the expanded uncertainty stated by the source.
Assay: refractive index (Na D-line) (dimensionless); xn = mol fraction of the nth substance listed
Conditions: 100 kPa, Liquid, Standard Abbe refractometry

CCC12CC3CC(CC(C3)C1)C2 [1-ethyladamantane] + OCC1CCCCC1
refractive index
Conditions	x2 = 0	x2 = 0.1	x2 = 0.2002	x2 = 0.2997	x2 = 0.3999	x2 = 0.4998	x2 = 0.5989	x2 = 0.7001	x2 = 0.8023	x2 = 0.8996
293.15 K	1.4927 ± 0.001	1.4903 ± 0.001	1.4877 ± 0.001	1.4853 ± 0.001	1.4828 ± 0.001	1.4801 ± 0.001	1.477 ± 0.001	1.474 ± 0.001	1.4708 ± 0.001	1.4673 ± 0.001
298.15 K	1.4906 ± 0.001	1.4883 ± 0.001	1.4861 ± 0.001	1.4835 ± 0.001	1.4807 ± 0.001	1.478 ± 0.001	1.4754 ± 0.001	1.4721 ± 0.001	1.4689 ± 0.001	1.4655 ± 0.001
303.15 K	1.4884 ± 0.001	1.4861 ± 0.001	1.4836 ± 0.001	1.4812 ± 0.001	1.4783 ± 0.001	1.4757 ± 0.001	1.4733 ± 0.001	1.47 ± 0.001	1.4668 ± 0.001	1.4634 ± 0.001
313.15 K	1.4839 ± 0.001	1.4816 ± 0.001	1.4791 ± 0.001	1.4768 ± 0.001	1.4741 ± 0.001	1.471 ± 0.001	1.4687 ± 0.001	1.4657 ± 0.001	1.4623 ± 0.001	1.4593 ± 0.001
323.15 K	1.4802 ± 0.001	1.4775 ± 0.001	1.4751 ± 0.001	1.4725 ± 0.001	1.4699 ± 0.001	1.4672 ± 0.001	1.4645 ± 0.001	1.4616 ± 0.001	1.4584 ± 0.001	1.4553 ± 0.001
333.15 K	1.4759 ± 0.001	1.4725 ± 0.001	1.4703 ± 0.001	1.4678 ± 0.001	1.4652 ± 0.001	1.4627 ± 0.001	1.4599 ± 0.001	1.4571 ± 0.001	1.4541 ± 0.001	1.451 ± 0.001

OCC1CCCCC1 [cyclohexylmethanol] + CC12CC3CC(C1)CC(C)(C3)C2
refractive index
Conditions	x1 = 0.1002	x1 = 0.1995	x1 = 0.2996	x1 = 0.4004	x1 = 0.4973	x1 = 0.6008	x1 = 0.7002	x1 = 0.7999	x1 = 0.9	x1 = 1
293.15 K	1.4759 ± 0.001	1.4754 ± 0.001	1.4742 ± 0.001	1.4732 ± 0.001	1.4719 ± 0.001	1.4705 ± 0.001	1.4692 ± 0.001	1.4673 ± 0.001	1.4655 ± 0.001	1.4629 ± 0.001
298.15 K	1.4738 ± 0.001	1.4734 ± 0.001	1.4722 ± 0.001	1.4709 ± 0.001	1.4698 ± 0.001	1.4688 ± 0.001	1.467 ± 0.001	1.4653 ± 0.001	1.4638 ± 0.001	1.4612 ± 0.001
303.15 K	1.4716 ± 0.001	1.4712 ± 0.001	1.47 ± 0.001	1.4689 ± 0.001	1.4679 ± 0.001	1.4664 ± 0.001	1.4651 ± 0.001	1.4635 ± 0.001	1.4617 ± 0.001	1.4592 ± 0.001
313.15 K	1.4673 ± 0.001	1.4669 ± 0.001	1.4656 ± 0.001	1.4645 ± 0.001	1.4633 ± 0.001	1.462 ± 0.001	1.4607 ± 0.001	1.4584 ± 0.001	1.4571 ± 0.001	1.455 ± 0.001
323.15 K	1.4626 ± 0.001	1.4623 ± 0.001	1.461 ± 0.001	1.4602 ± 0.001	1.459 ± 0.001	1.4575 ± 0.001	1.4564 ± 0.001	1.4548 ± 0.001	1.4535 ± 0.001	1.4507 ± 0.001
333.15 K	1.4583 ± 0.001	1.4578 ± 0.001	1.4565 ± 0.001	1.4554 ± 0.001	1.4544 ± 0.001	1.4529 ± 0.001	1.4514 ± 0.001	1.45 ± 0.001	1.4488 ± 0.001	1.4463 ± 0.001

CCC12CC3CC(CC(C3)C1)C2 [1-ethyladamantane] + CCCCCCCO
refractive index
Conditions	x2 = 0	x2 = 0.0999	x2 = 0.1999	x2 = 0.2988	x2 = 0.3991	x2 = 0.4998	x2 = 0.5995	x2 = 0.7	x2 = 0.8002	x2 = 0.9
293.15 K	1.4927 ± 0.001	1.4869 ± 0.001	1.4809 ± 0.001	1.4746 ± 0.001	1.4682 ± 0.001	1.461 ± 0.001	1.4546 ± 0.001	1.4473 ± 0.001	1.4397 ± 0.001	1.4316 ± 0.001
298.15 K	1.4906 ± 0.001	1.4847 ± 0.001	1.4785 ± 0.001	1.4725 ± 0.001	1.466 ± 0.001	1.4594 ± 0.001	1.4522 ± 0.001	1.4451 ± 0.001	1.4376 ± 0.001	1.4298 ± 0.001
303.15 K	1.4884 ± 0.001	1.4827 ± 0.001	1.4768 ± 0.001	1.4704 ± 0.001	1.464 ± 0.001	1.4573 ± 0.001	1.4499 ± 0.001	1.4433 ± 0.001	1.4359 ± 0.001	1.4278 ± 0.001
313.15 K	1.4839 ± 0.001	1.4782 ± 0.001	1.4722 ± 0.001	1.466 ± 0.001	1.4596 ± 0.001	1.4528 ± 0.001	1.4462 ± 0.001	1.4389 ± 0.001	1.4316 ± 0.001	1.4236 ± 0.001
323.15 K	1.4802 ± 0.001	1.474 ± 0.001	1.468 ± 0.001	1.4618 ± 0.001	1.4554 ± 0.001	1.4486 ± 0.001	1.4419 ± 0.001	1.4349 ± 0.001	1.4273 ± 0.001	1.4198 ± 0.001
333.15 K	1.4759 ± 0.001	1.4697 ± 0.001	1.4635 ± 0.001	1.4577 ± 0.001	1.451 ± 0.001	1.4443 ± 0.001	1.4373 ± 0.001	1.4305 ± 0.001	1.423 ± 0.001	1.4156 ± 0.001

Reference: the NIST ThermoML archive (doi:10.1021/je500381c)
